This is an account of results in patent publication US20220332774A1, “THERAPEUTIC MITOCHONDRIAL PEPTIDES” (priority 2019, published 2022).

Assay [1] relates to 3T3-L1 Mouse Adipocytes. In words: Free fatty acid levels in cultured 3T3-L1 mouse adipocytes (isoproterenol stimulated). As to conditions: for Percent of Isoproterenol Control Activity: free fatty acid in medium, 5 μM peptide, 20-22 h pre-incubation then 3 h with 0.1 nM isoproterenol, isoproterenol alone = 100%. It counts as cell-based. The protocol: The effect of the peptides on fatty acid metabolism can be assessed using an assay to monitor free fatty acid levels produced by cultured cells such as mouse adipocytes. Peptide arrays were initially prepared as 5 mM stock in DMSO and diluted to 0.5 mM in H2O; peptides were used at a final concentration of 5 μM (0.1% DMSO). Calculations for peptide concentrations based on approximate molecular weight of 2000 Daltons. […] Mouse 3T3-L1 cells purchased from ZenBio (Research Triangle Park, NC) were seeded at 3,000 cells per well in 96-well plates in Pre-adipocyte Medium (Zen-Bio) and grown to confluence at 37° C. in a humidified atmosphere of 5% CO2/95% air. Two days after confluence, cells were placed in Adipocyte Differentiation Medium (Zen-Bio) and cultured for three additional days at 37° C. in a humidified atmosphere of 5% CO2/95% air. The culture medium was then replaced with Adipocyte Maintenance Medium (Zen-Bio) and the cells maintained for an additional 9 days at 37° C. in a humidified atmosphere of 5% CO2/95% air with partial medium replacement every other day. Following 12 days of differentiation, medium was replaced Adipocyte Maintenance Medium without insulin and the cultures placed at 37° C. in a humidified atmosphere of 5% CO2/95% air. On day 13 of differentiation, test peptides were added directly to each well (without replacing the medium) at a final concentration of 5 μM in 0.1% DMSO and incubated for 20-22 hours at 37° C. in a humidified atmosphere of 5% CO2/95% air. […] Cells were incubated for 3 hours in Assay Buffer (Zen-Bio) at 37° C. in a humidified atmosphere of 5% CO2/95% air. Following 3 h incubation, conditioned medium from each well was transferred to a fresh 96-well plate. Free fatty acid concentrations in the medium were determined using a Free Fatty Acid Assay kit (Zen-Bio) according to the manufacturer's instructions; absorbance was measured using a Cytation 3 plate reader at 540 nm (BioTek, Winooski, Vt.). Treatment with 0.1 nM isoproterenol alone was used as the free fatty acid level stimulatory control. Absorbance values were expressed as percent control activity relative to 0.1 nM isoproterenol alone treated cells, 100%. The relative standard deviation of the isoproterenol control was <10%. Insulin at 0.25 nM was used as a potent control for decreasing free fatty acid levels. […] Data presented are representative values from 2 independent experiments with each data point performed in triplicate in each independent experiment.

Assay [2] deals with H4-IIE Cells. Description: Glucose production in cultured H4-IIE cells. The assay is classed as cell-based, rat. As to conditions: 24 h; for Percent of Control Activity: glucose concentration in medium relative to untreated cells, 5 μM peptide. The protocol: The effect of the peptides on glucose homeostasis can be assessed using an assay to monitor glucose production by cultured cells such as rat hepatocytes. Peptide arrays were initially prepared as 5 mM stock in DMSO and diluted to 0.5 mM in H2O; peptides were used at a final concentration of 5 μM (0.1% DMSO). Calculations for peptide concentrations based on approximate molecular weight of 2000 Daltons. H4-IIE rat hepatic cell line was purchased from American Type Culture Collection (Manassas, Va.). H4-IIE cells were seeded in standard medium (DMEM/high glucose+10% Fetal Bovine Serum+antibiotics) at 100,000 cells/well on 96-well plates and allowed to adhere overnight at 37° C. in a humidified atmosphere of 5% CO2/95% air. 24 h after seeding, the medium was removed, cells were rinsed with glucose free DMEM, and the medium replaced with Glucose Production Medium (glucose free DMEM+2 mM sodium pyruvate+10 mM sodium lactate+antibiotics). The cultures were placed at 37° C. in a humidified atmosphere of 5% CO2/95% air overnight. The next morning, the medium was removed and fresh Glucose Production Medium containing compounds was added; 5 uM peptide or 0.5-1 nM insulin as a potent inhibitor of glucose production. Cells were incubated for 24 h at 37° C. in a humidified atmosphere of 5% CO2/95% air. Following 24 h incubation, conditioned medium from each well was transferred to a fresh 96-well plate. Glucose concentrations in the medium were determined using a Glucose Assay kit (Abcam; Cambridge, Mass.) according to the manufacturer's instructions; absorbance measured using a Cytation 3 plate reader at 570 nm (BioTek, Winooski, Vt.). Untreated cells were used as reference for maximal glucose production. Absorbance values were expressed as percent control activity relative to untreated treated cells for 5 μM peptide. The relative standard deviation from plate to plate of untreated control was <25%. […] Glucose levels for 0.5-1 nM insulin treatment were <5% of the untreated control value. Data are presented as representative values from 2-3 independent experiments with each data point performed in triplicate in each independent experiment.

Assay [3] concerns C2C12 Cells. In words: Glucose utilization in cultured C2C12 cells (myotubes). The assay is classed as cell-based, mouse. As to conditions: 22 h; for Percent of Control Activity: glucose concentration in medium relative to untreated cells, 5 μM peptide. The protocol: The effect of the peptides on glucose homeostasis can be assessed using an assay to monitor glucose utilization by cultured cells such as mouse myotubes. Peptide arrays were initially prepared as 5 mM stock in DMSO and diluted to 0.5 mM in H2O; peptides were used at a final concentration of 5 μM (0.1% DMSO). Calculations for peptide concentrations based on approximate molecular weight of 2000 Daltons. C2C12 mouse muscle cell line was purchased from Millipore Sigma (Saint Louis, Mo.). C2C12 cells were seeded in standard medium (DMEM/low glucose (1 g/L)+10% Fetal Bovine Serum+antibiotics) at 7,500 cells/well on 96-well plates and grown to confluence at 37° C. in a humidified atmosphere of 5% CO2/95% air. Three days after plating the medium was removed and with Differentiation Medium (DMEM/low glucose (1 g/L)+2% Horse Serum+antibiotics) added. The cultures were placed at 37° C. in a humidified atmosphere of 5% CO2/95% air for 5 days with partially replacement of medium daily. After 5 days of differentiation, the medium was removed from myotube cultures and replaced with Assay Medium (DMEM/low glucose (1 g/L)+antibiotics). Culture were placed at 37° C. in a humidified atmosphere of 5% CO2/95% air for 5 h. Following the 5 h incubation the medium was removed and fresh Assay Medium containing compounds was added; 5 μM peptide or 1 mM metformin as a potent stimulator of glucose utilization. Cells were incubated for 22 h at 37° C. in a humidified atmosphere of 5% CO2/95% air. Following 22 h incubation, conditioned medium from each well was transferred to a fresh 96-well plate. Glucose concentrations in the medium were determined using a Glucose Assay kit (Abcam; Cambridge, Mass.) according to the manufacturer's instructions; absorbance measured using a Cytation 3 plate reader at 570 nm (BioTek, Winooski, Vt.). Untreated cells were used as reference for basal glucose utilization. Absorbance values were expressed as percent control activity relative to untreated treated cells for 5 μM peptide. The relative standard deviation from plate to plate of untreated control was <10%. […] Data presented are representative values from 2-3 independent experiments with each data point performed in triplicate in each independent experiment.

As for 1 (MAAAPSGCPDPTS) [compound 1], in assay [1], the “Percent of Isoproterenol Control Activity” value came out at 85%. For the same molecule, the “Percent of Control Activity” value in assay [2] is listed as 128%; in assay [3], 99%.
For the molecule 2 (MAASVERGFIFLV) [compound 2], in assay [1], the “Percent of Isoproterenol Control Activity” value is reported as 93%. In addition, the “Percent of Control Activity” value in assay [2] stood at 119%; in assay [3], 99%.
For “3 (MAGGFMLMIVVMKLMAPKMEETPA) [compound 3]”, in that order: 91%, 118% and 94%.
Regarding 4 (MAHTFPLNKTSR) [compound 4], the “Percent of Isoproterenol Control Activity” value in assay [1] came out at 80%. Also, the “Percent of Control Activity” value in assay [2] was determined as 116%; in assay [3], 101%.
As for 5 (MAHYSQIPSRPHGWPPSD) [compound 5], the “Percent of Isoproterenol Control Activity” value in assay [1] was determined as 98%. In addition, the “Percent of Control Activity” value is 122% in assay [2] and 101% in assay [3].
Take 6 (MAIAVVYPKTTIIPPK) [compound 6]: the “Percent of Isoproterenol Control Activity” value in assay [1] amounted to 80%. For the same molecule, the entries for the “Percent of Control Activity” value in assay [2] and in assay [3] were 122% and 100%, respectively.
For 8 (MAPPLPPLEPTVKLT) [compound 8], in that order: 102%, 90% and 102%.
The corresponding values for 9 (MAQTMPMYPNGSFFPE) [compound 9] are 98%, 90% and 98%.
For “10 (MATKKNFMEKGTRAGDMGSKPHS) [compound 10]”, the “Percent of Isoproterenol Control Activity” value in assay [1] is listed as 94%. For the same molecule, the figures for the “Percent of Control Activity” value in assay [2] and in assay [3] were 87% and 100%, respectively.
For “11 (MAVVDGWVNTWVVPKSASPWKN) [compound 11]”, the “Percent of Isoproterenol Control Activity” value in assay [1] came out at 84%. Besides, the “Percent of Control Activity” value in assay [2] is 76%; in assay [3], 96%.
Turning to “13 (MCSCVYVYSYCKYMVCSHDKP) [compound 13]”, the “Percent of Isoproterenol Control Activity” value in assay [1] stood at 92%. The “Percent of Control Activity” value in assay [2] is 87%; in assay [3], 101%.
Turning to 14 (MDGCALLAVL) [compound 14], the “Percent of Isoproterenol Control Activity” value in assay [1] came to 101%. Moreover, the “Percent of Control Activity” value in assay [2] came to 120%; in assay [3], 100%.
Turning to 15 (MDMVPQGKDEKL) [compound 15], in assay [1], the “Percent of Isoproterenol Control Activity” value worked out at 90%. The entries for the “Percent of Control Activity” value in assay [2] and in assay [3] were 88% and 96%, respectively.
For the molecule 16 (MDSWVVGVNEWG) [compound 16], the “Percent of Isoproterenol Control Activity” value in assay [1] is 89%. For the same molecule, the entries for the “Percent of Control Activity” value in assay [2] and in assay [3] were 89% and 100%, respectively.
Regarding “18 (MEAMGLAWNQLWGVRFLPFLS) [compound 18]”, in assay [1], the “Percent of Isoproterenol Control Activity” value is recorded as 102%. Further, the figures for the “Percent of Control Activity” value in assay [2] and in assay [3] were 99% and 97%, respectively.
Take 19 (METDLDYSGLNSDHVGL) [compound 19]: in assay [1], the “Percent of Isoproterenol Control Activity” value worked out at 89%. The “Percent of Control Activity” value in assay [2] is 99%; in assay [3], 94%.
On to 20 (MFDQENVVTSTESSPS) [compound 20], for which the “Percent of Isoproterenol Control Activity” value in assay [1] was 88%. The “Percent of Control Activity” value in assay [2] worked out at 97%; in assay [3] it was 102%.
For 23 (MFHLRYHNHRYPHRRQSI) [compound 23], in that order: 94%, 96% and 99%.
The corresponding values for 24 (MFKLSFYFYVV) [compound 24] are 92%, 96% and 94%.
For 25 (MFLVGWWGMV) [compound 25], in that order: 91%, 94% and 97%.
For the molecule 26 (MGACQGGSDESN) [compound 26], in assay [1], the “Percent of Isoproterenol Control Activity” value stood at 93%. The “Percent of Control Activity” value worked out at 97% in assay [2] and 99% in assay [3].
The corresponding values for 27 (MGCDDNVVDVVVT) [compound 27] are 87%, 100% and 95%.
For “28 (MGCSGSSVSQCYRVHTPQTKMPNAW) [compound 28]”, in that order: 105%, 121% and 100%.
For 29 (MGDCAVCDA) [compound 29], in that order: 90%, 106% and 109%.
For the molecule `CN(C)C(=N)N=C(N)N` [Metformin, reference compound], the “reduction of extracellular glucose compared to untreated controls” value in assay [3] (metformin 1 mM, across all plates) was 50-70%.
With insulin [reference compound], the “Free fatty acid levels” value in assay [1] (insulin 0.25 nM with 0.1 nM isoproterenol, 3 h) is listed as “at or below levels for unstimulated control without isoproterenol”. In addition, the “Glucose levels, % of the untreated control value” in assay [2] (0.5-1 nM insulin) is recorded as below 5%.
